Source: patent publication US20260200888A1, “BIO-BASED COMPOUNDS” (SPECIALTY OPERATIONS FRANCE, priority 2022, published 2026)

Experiments:
[1] = Solubility of mono-fungicides in the solvent of Example 6 and prior art solvents (Example 7); details: 24° C.; for Maximum solubility (w/v) in Cyrene: solvent Cyrene; for Maximum solubility (w/v) in Example 6: solvent Example 6; for Maximum solubility (w/v) in Rhodiasolv ADMA10: solvent Rhodiasolv ADMA10
[2] = Solubility of mono-fungicides in the solvent of Example 1 and prior art solvents (Example 2); details: for Maximum solubility (w/v) in Cyrene: solvent Cyrene; for Maximum solubility (w/v) in Example 1: solvent Example 1; for Maximum solubility (w/v) in Rhodiasolv ADMA10: solvent Rhodiasolv ADMA10; for Maximum solubility (w/v) in Rhodiasolv PolarClean: solvent Rhodiasolv PolarClean
Excerpt: The concentration of the fungicides (w/v) was increased in 5% intervals and the highest still soluble concentration is stated in the table below.

[3] = in Cyrene and NBP
[4] = 24° C., 5% intervals, highest still soluble concentration

| Structure (SMILES) | Maximum solubility (w/v) in Cyrene [1] | Maximum solubility (w/v) in Example 6 [1] | Maximum solubility (w/v) in Rhodiasolv ADMA10 [1] | Maximum solubility (w/v) in Cyrene ([2]; 0° C. after seeding) | Maximum solubility (w/v) in Cyrene ([2]; 24° C.) | Maximum solubility (w/v) in Example 1 ([2]; 0° C. after seeding) | Maximum solubility (w/v) in Example 1 [2, 4] | Maximum solubility (w/v) in Rhodiasolv ADMA10 ([2]; 0° C. after seeding) | Maximum solubility (w/v) in Rhodiasolv ADMA10 ([2]; 24° C.) | Maximum solubility (w/v) in Rhodiasolv PolarClean ([2]; 0° C. after seeding) | Maximum solubility (w/v) in Rhodiasolv PolarClean ([2]; 24° C.) | Viscosity of the resulting NBPT solution ([3]; even at 35% (w/v)) | Appearance of the NBPT solution ([3]; even at low concentrations) |
| --- | --- | --- | --- | --- | --- | --- | --- | --- | --- | --- | --- | --- | --- |
| CO/C=C(/C(=O)OC)c1ccccc1Oc1cc(Oc2ccccc2C#N)ncn1 [Azoxystrobin] | 20% (w/v) | 10% (w/v) | 2% (w/v) | 20% (20%) % (w/v) | 20% (20%) % (w/v) | 10% (10%) % (w/v) | 10% (10%) % (w/v) | (2%) % (w/v) | 2% (w/v) | (5%) % (w/v) | 15% (w/v) |  |  |
| CCCCNP(N)(N)=S [NBPT, N-(n-butyl)thiophosphoric triamide] |  |  |  |  |  |  |  |  |  |  |  | highly viscous | yellow discoloration |
| OC(Cc1ccccc1Cl)(Cn1nc[nH]c1=S)C1(Cl)CC1 (stereo not drawn) [Prothioconazole] | 10% (w/v) | >30% (w/v) | 40% (w/v) | 10% (10%) % (w/v) | 10% (10%) % (w/v) | 50% (50%) % (w/v) | 50% (50%) % (w/v) | (40%) % (w/v) | 40% (w/v) | (50%) % (w/v) | 50% (w/v) |  |  |
| COC(=O)N(OC)c1ccccc1COc1ccn(-c2ccc(Cl)cc2)n1 [Pyraclostrobin] | 45% (w/v) | >25% (w/v) | 15% (w/v) | 45% (45%) % (w/v) | 45% (45%) % (w/v) | 45% (45%) % (w/v) | 45% (45%) % (w/v) | (10) % (w/v) | 15% (w/v) | (45%) % (w/v) | 45% (w/v) |  |  |
| CC(C)N(C)S(=O)(=O)NC(=O)c1cc(-n2c(=O)cc(C(F)(F)F)n(C)c2=O)c(F)cc1Cl [Saflufenacil] | 10% (w/v) | >10% (w/v) | 10% (w/v) | 10% (10%) % (w/v) | 10% (10%) % (w/v) | 20% (20%) % (w/v) | 20% (20%) % (w/v) | (10%) % (w/v) | 10% (w/v) | (25%) % (w/v) | 25% (w/v) |  |  |
| CC(C)(C)C(O)(CCc1ccc(Cl)cc1)Cn1cncn1 (stereo not drawn) [Tebuconazole] |  |  |  |  |  |  |  | (20%) % (w/v) |  | (30%) % (w/v) |  |  |  |
